Among the test systems are HCT-15 colon; HCC-2998 colon; PC-3 prostate; SK-OV-3 ovarian; HS 578T breast; U251 CNS; IGROV1 ovarian; HCT-116 colon; UACC-257 melanoma; SF-539 CNS; OVCAR-3 ovarian; 786-0 renal.
Holding throughout (experiment): DTP human tumour cell line panel, 48 h

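Interpolation was linear, between the two tested concentrations surrounding the appropriate level; five concentrations were tested over 48 hours in 96-well plates. TGI is the concentration that stops growth completely.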

Experimental findings from PubChem BioAssay (NCI) are described below.

In the case of `O=C(/C=C/c1ccccc1)Nc1ccccc1SCCCCl`, the TGI is more than 100 µM in the assay on HCT-15 colon; 73.9 µM in the assay on HCC-2998 colon; more than 100 µM in the assay on PC-3 prostate; more than 100 µM in the assay on SK-OV-3 ovarian; more than 29.3 µM in the assay with HS 578T breast; more than 82.8 µM with U251 CNS. Moreover, the TGI in the assay on IGROV1 ovarian was more than 51.5 µM; in the assay with HCT-116 colon, 39.1 µM; in the assay with UACC-257 melanoma, more than 100 µM; in the assay with SF-539 CNS, 39.8 µM; with OVCAR-3 ovarian, more than 92.1 µM; in the assay with 786-0 renal, more than 100 µM.
`CC(=O)c1ccc2c(c1)CC1(C2)Cc2cc3c(c(C(=O)O)c2C1)CCC3` (configuration not stated): the TGI with HCT-15 colon, in the assay on HCC-2998 colon, in the assay with PC-3 prostate, in the assay on SK-OV-3 ovarian, with HS 578T breast and with U251 CNS was more than 100 µM throughout. Moreover, the TGI in the assay on IGROV1 ovarian, in the assay with HCT-116 colon, in the assay with UACC-257 melanoma, with SF-539 CNS, in the assay with OVCAR-3 ovarian and in the assay with 786-0 renal was more than 100 µM in each case.
For `COC1CC(OC2C(C)OC(OC3C(C)OC(OC4C(C)OC(O[C@H]5CC[C@@]6(C)C(=CC[C@]7(O)[C@@H]6C[C@@H](OC(C)=O)[C@@]6(C)[C@]7(O)CC[C@@]6(O)C(C)=O)C5)CC4OC)CC3OC)CC2OC)OC(C)C1O` (some centres not stated), the TGI in the assay on HCT-15 colon, in the assay on HCC-2998 colon, in the assay on PC-3 prostate, with SK-OV-3 ovarian, in the assay on HS 578T breast and in the assay on U251 CNS was more than 25 µM in each case. Also, the TGI with IGROV1 ovarian, with HCT-116 colon, with UACC-257 melanoma, with SF-539 CNS, in the assay with OVCAR-3 ovarian and with 786-0 renal was more than 25 µM throughout.
As to `OC(CN(CCCl)CCCl)C(O)C(O)C(O)CN(CCCl)CCCl` (configuration not stated), the TGI with HCT-15 colon, in the assay on HCC-2998 colon, in the assay with PC-3 prostate, in the assay on SK-OV-3 ovarian, with HS 578T breast and with U251 CNS was more than 100 µM in each case. For the same compound, the TGI with IGROV1 ovarian, in the assay with HCT-116 colon, in the assay with UACC-257 melanoma, in the assay on SF-539 CNS, with OVCAR-3 ovarian and in the assay on 786-0 renal was more than 100 µM throughout.
As to `COC(=O)c1cc(NC(=O)Cc2c[nH]c3ccccc23)cn1C`, the TGI in the assay on HCT-15 colon, in the assay on HCC-2998 colon, in the assay on PC-3 prostate, in the assay on SK-OV-3 ovarian, in the assay on HS 578T breast and in the assay on U251 CNS was more than 100 µM throughout. Moreover, the TGI with IGROV1 ovarian, in the assay on HCT-116 colon, in the assay on UACC-257 melanoma, in the assay with SF-539 CNS, in the assay with OVCAR-3 ovarian and in the assay with 786-0 renal was more than 100 µM throughout.
With `CCOP(=O)(OCC)C(NC(=O)C(C(F)(F)F)C(F)(F)F)c1ccccc1` (configuration not stated), the TGI in the assay with HCT-15 colon, in the assay on HCC-2998 colon, in the assay on PC-3 prostate, with SK-OV-3 ovarian, in the assay on HS 578T breast and with U251 CNS was more than 100 µM throughout. The TGI in the assay on IGROV1 ovarian, with HCT-116 colon, in the assay with UACC-257 melanoma, with SF-539 CNS, with OVCAR-3 ovarian and in the assay with 786-0 renal was more than 100 µM each time.

The TGI is the concentration at which net growth stops. Low readings indicate more potent growth arrest, high ones less potent growth arrest.
